Measured values as given in patent US20240324596A1, “SUBSTITUTED TOLYL FUNGICIDES” (FMC CORPORATION, priority 2023, published 2024).

Test system: Puccinia recondita f. sp. tritici
Test: Test B: preventive spray on wheat seedlings, wheat leaf rust disease rating
Format: in vivo
Settings: 192 h, 100 = 100% disease control, 0 = no control
Source text: (§1) General protocol for preparing test suspensions for Tests A-F: the test compounds were first dissolved in acetone in an amount equal to 3% of the final volume and then suspended at the desired concentration (in ppm) in acetone and purified water (50/50 mix by volume) containing 250 ppm of the surfactant PEG400 (polyhydric alcohol esters). The resulting test suspensions were then used in Tests A-F.
The test solution was sprayed to the point of run-off on wheat seedlings. The following day the seedlings were inoculated with a spore suspension of Puccinia recondita f. sp. tritici (the causal agent of wheat leaf rust) and incubated in a saturated atmosphere at 20° C. for 24 h, and then moved to a growth chamber at 20° C. for 7 days, after which time disease ratings were made.
(§2) A rating of 100 indicates 100% disease control and a rating of 0 indicates no disease control (relative to the controls). A dash (-) indicates the compound was not tested.

Structure (SMILES)	pest or weed control at 10 ppm [%]
COC(=O)NCc1cc(-c2ncn(-c3c(F)cc(Cl)cc3F)n2)ccc1C [Compound 105]	100

Test system: Phakopsora pachyrhizi
Test: Test D: preventive spray on soybean seedlings, Asian soybean rust disease rating
Format: in vivo
Settings: 216 h, 100 = 100% disease control, 0 = no control
Source text: as §1
The test solution was sprayed to the point of run-off on soybean seedlings. The following day the seedlings were inoculated with a spore suspension of Phakopsora pachyrhizi (the causal agent of Asian soybean rust) and incubated in a saturated atmosphere at 22° C. for 24 h and then moved to a growth chamber at 22° C. for 8 days, after which time visual disease ratings were made.
as §2

Structure (SMILES)	pest or weed control at 10 ppm [%]
COC(=O)NCc1cc(-c2ncn(-c3c(F)cc(Cl)cc3F)n2)ccc1C [Compound 105]	92

Test system: not given
Test: not given
Settings: not given

melting point [°C]	Structure (SMILES)
144 to 148	COC(=O)NCc1cc(-c2cnn(-c3c(F)cc(N)cc3F)n2)ccc1C [Compound 115, methyl N-[[5-[2-(4-amino-2,6-difluorophenyl)-2H-1,2,3-triazol-4-yl]-2-methylphenyl]methyl]carbamate]
108 to 112	COC(=O)NCc1cc(-c2cnn(-c3c(F)cc(Cl)cc3F)n2)ccc1C [Compound 117, methyl N-[[5-[2-(4-chloro-2,6-difluorophenyl)-2H-1,2,3-triazol-4-yl]-2-methylphenyl]methyl]carbamate]
152 to 156	COC(=O)NCc1cc(-c2cnn(-c3c(F)cc([N+](=O)[O-])cc3F)n2)ccc1C [Compound 118, methyl N-[[5-[2-(2,6-difluoro-4-nitrophenyl)-2H-1,2,3-triazol-4-yl]-2-methyl-phenyl]methyl]carbamate]
174 to 178	COC(=O)NCc1cc(-c2cn(-c3c(F)cc([N+](=O)[O-])cc3F)nn2)ccc1C [Compound 132, methyl N-[[5-[1-(2,6-difluoro-4-nitrophenyl)-1H-1,2,3-triazol-4-yl]-2-methylphenyl]methyl]carbamate]

Continued, compound first:

Structure (SMILES)	melting point [°C]
COC(=O)NCc1cc(-c2ccn(-c3c(F)cc([N+](=O)[O-])cc3F)n2)ccc1C [Compound 1, methyl N-[[5-[1-(2,6-difluoro-4-nitrophenyl)-1H-pyrazol-3-yl]-2-methyl-phenyl]methyl]carbamate]	131 to 134
COC(=O)NCc1cc(-c2ccn(-c3c(F)cc(N)cc3F)n2)ccc1C [Compound 5, methyl N-[[5-[1-(4-amino-2,6-difluorophenyl)-1H-pyrazol-3-yl]-2-methyl-phenyl]methyl]carbamate]	168 to 171
COC(=O)NCc1cc(-c2ccn(-c3c(F)cc(Br)cc3F)n2)ccc1C [Compound 7, methyl N-[[5-[1-(4-bromo-2,6-difluorophenyl)-1H-pyrazol-3-yl]-2-methyl-phenyl]methyl]carbamate]	138 to 139
COC(=O)NCc1cc(-c2ccn(-c3c(F)cc(O)cc3F)n2)ccc1C [Compound 10, methyl N-[[5-[1-(2,6-difluoro-4-hydroxyphenyl)-1H-pyrazol-3-yl]-2-methylphenyl]methyl]carbamate]	178 to 180
COC(=O)NCc1cc(-c2ccn(-c3c(F)cc(OC(C)C)cc3F)n2)ccc1C [Compound 14, methyl N-[[5-[1-[2,6-difluoro-4-(1-methylethoxy)phenyl]-1H-pyrazol-3-yl]-2-methylphenyl]methyl]carbamate]	133 to 134
COC(=O)NCc1cc(-c2ccn(-c3c(F)cc(C=O)cc3F)n2)ccc1C [Compound 67, methyl N-[[5-[1-(2,6-difluoro-4-formylphenyl)-1H-pyrazol-3-yl]-2-methyl-phenyl]methyl]carbamate]	156 to 160
COC(=O)NCc1cc(-c2ccn(-c3c(F)cc(C(=O)OC)cc3F)n2)ccc1C [Compound 70, methyl 3,5-difluoro-4-[3-[3-[[(methoxycarbonyl)amino]methyl]-4-methyl-phenyl]-1H-pyrazol-1-yl]benzoate]	120 to 122
COC(=O)NCc1cc(-c2ccn(-c3c(F)cc(CO)cc3F)n2)ccc1C [Compound 71, methyl N-[[5-[1-[2,6-difluoro-4-(hydroxymethyl)phenyl]-1H-pyrazol-3-yl]-2-methylphenyl]methyl]carbamate]	183 to 184
COC(=O)NCc1cc(-c2ncn(-c3c(F)cc(Cl)cc3F)n2)ccc1C [Compound 105]	166 to 170
